Experimental data taken from patent US8158589B2, “Peptides with the capacity to bind to transforming growth factor β1 (TGF-β1)” (Proyecto Biomedicine Cima, S.L., priority 2003, dated 2012).
Ends that are not written are not given here.

How the values were obtained:
[1] = biological target: T1, TGF-β1 (Homo sapiens, UniProt P01137); format: cell-based; design: purchased Roche; host or cells: added to Mv-1-Lu (CCL-64) mink lung epithelial cells; details: Mv-1-Lu proliferation
From the text: The cell line Mv-1-Lu (CCL-64, […], Virginia, USA) derives from mink pulmonary epithelium, grows as a monolayer, and responds to the presence of TGF-β1 by decreasing its proliferation (FIG. 5). Thus, the peptide-mediated inhibition of this cytokine is able to restore cell growth and reflects the capacity of the different peptides to inhibit the biological activity of TGF-β1 in vitro. The peptides tested were obtained by peptide synthesis, in accordance to conventional procedures (Merrifield R B. J Am Chem Soc 1963; 85:2149-2154; Atherton E et al. J Chem Soc Perkin Trans 1981; 1:538-546).
The Mv-1-Lu cells are cultured to confluence in complete medium [RPMI-1640 supplemented with L-glutamine, sodium pyruvate, antibiotics and 10% fetal bovine serum (FBS)] at 37° C. and in 5% CO2 in 162 cm^2 bottles (Costar Corporation, CA, USA). Following trypsinization, the cells are cultured in 200 μl of complete medium in 96-well plates at an initial density of 5,000 cells/well at 37° C. and in 5% CO2 during 6 hours to ensure adhesion. Then, different concentrations of the peptides to be tested are added, starting from 200 μg/ml, and following 200 pg/ml of TGF-β1 (Roche) are added. After 12 hours of incubation 1 μCi of methyl-3H-thymidine (Amersham Life Science, Buckinghamshire, United Kingdom) is added per well in 25 μl of clean medium (RPMI-1640). The plate is incubated for 12 more hours under the same conditions. Finally, the cells are harvested (Filtermate 196 Harvester, Packard), transferring the tritiated thymidine, incorporated in the course of DNA synthesis, to plates (UniFilter-96 GF/C®, Perkin Elmer). Following the addition of scintillation fluid, the radioactivity was quantified using a scintillation counter (Top Count, Microplate Scintillation Counter, Packard). As positive and negative control, use was made of the incorporation of tritiated thymidine in the absence and presence of TGF-β1, respectively. The inhibition of TGF-β1 activity in this test was calculated based on the following formula: […]
The negative control represents the incorporation of tritiated thymidine in the presence of TGF-β1 but in the absence of peptide, whereas the positive control refers to the incorporation of tritiated thymidine in the absence of TGF-β1 and peptide. Thus, according to the capacity of the peptides to revert the cytokine repressor effect on Mv-1-Lu cell line proliferation, percentage of TGF-β1 biological activity inhibition by the peptides can be measured (Table 2).
Comparisons have been made of the activity of truncated peptides (derived from peptide sequence SEQ ID NO: 17) versus the complete sequence, in terms of the capacity to revert the suppressor effect of TGF-β1 upon proliferation of the Mv-1-Lu cell line. To this effect, and to determine the minimum sequence of peptide SEQ ID NO: 17 capable of inhibiting the biological activity of TGF-β1 in vitro, truncated versions of this peptide were synthesized, with truncation at the N-terminal end, C-terminal end or in both ends of the molecule. The peptides tested were obtained by peptide synthesis following conventional procedures (Merrifield R B. J Am Chem Soc 1963; 85:2149-2154; Atherton E et al. J Chem Soc Perkin Trans 1981; 1:538-546). Following the same methodology described in Example 2, the activity of truncated peptides versus the complete sequence of the peptide SEQ ID NO: 17 was quantified, in terms of a proliferation assay of the Mv-1-Lu cell line.

[2] = biological target: T1, TGF-β1; experiment: Biopanning of phage-displayed 15-aa peptide library on biotinylated TGF-β1, number of colonies per sequence; format: binding; design: purchased Roche; host or cells: added to Mv-1-Lu (CCL-64) mink lung epithelial cells; details: clones carrying the sequence among 108 colonies after the last biopanning cycle; approximate indication of affinity for TGF-β1
From the text: These libraries comprise a plurality of filamentous bacteriophages (M13), each one containing a peptide genetically fused to a protein of the virus envelope—in this case bound to the N-terminal end of envelope protein pIII (FIG. 1). […] In the phage libraries, the sequence encoding the peptide originates from a sequence degenerated in each one of the 15 positions with the 20 natural amino acids, thus allowing the presentation of 1.1×10^12 possible sequences of 15 amino acids in different phages. The physical ratio, 1:1, between the peptide sequence and the DNA encoding it within the bacteriophage allows the selection (from a broad range of variants) of those sequences that specifically bind to TGF-β1. This process is carried out via an in vitro selection protocol known as “biopanning”.
This technique involves incubating a set of phages representative (to practical effects) of all the 15-aa variants, in a plate blocked with streptavidin (10 μg/ml in 0.1 M NaHCO3, during 2 h at room temperature) to which biotinylated TGF-β1 is added. […] TGF-β1 contacts the peptides carried by the phages at a concentration of […]. After about 12 hours incubation, unbound phages are eliminated by 5 washings with PBS/Tween (phosphate buffered saline/polyoxyalkylene derivatives of sorbitan fatty acid esters). […] The eluted phages are then amplified by infection in a bacterial strain (E. coli). The process is repeated three cycles so that an enrichment in the content of phages which specifically bind, and with high affinity, to TGF-β1 is achieved (FIG. 3). […] Thus, the phages selected in each cycle show more and more affinity for TGF-β1. At the end of the process, phages which have been selected for their affinity for TGF-β1, are sequenced by using primers, after isolation by tetracycline resistance of the genetically modified phages after infecting E. coli cells. […] The number of times which a sequence is repeated, corresponding to a 15 amino acids peptide carried by each clone, from the total of sequenced colonies is an indication of the degree of relative affinity of said 15 amino acids sequence for TGF-β1.
The selection of clones, obtained from the “biopanning”, was carried out by selection of the bacterial colonies infected with the phages in the presence of a bacterial antibiotic; the bacteria resistance is acquired by a tetracycline resistance gene encoded by the phage genome. Thus, only those colonies infected with bacteriophages are able to grow. This means that each colony contains the genome of only one phage coding for only one peptide presented in its surface.
A total number of 108 colonies of phage-infected bacteria were obtained from the last selection cycle of “biopanning”. The sequence of the regions coding for the peptides present in the pIII protein was carried out using primers identified with SEQ ID NO: 23. This table also reflects the number of colonies (clones) carrying said sequences.
The number of clones (colonies) of each sequence gives an approximate indication of the degree of affinity of the peptide for TGF-β1, that is, the more colonies the more binding affinity.

[3] = biological target: T2, TGF-β1 (Mus musculus, UniProt P04202); experiment: Model of acute liver damage induced by CCl4, type I collagen mRNA by real time PCR; format: in vivo, mice; design: key to % Inhibition of type I collagen mRNA induction (in vivo TGF-β1 biological activity): Neg: negative; details: for % Inhibition of type I collagen mRNA induction (in vivo TGF-β1 biological activity): Balb/C mice, oral CCl4, 50 μg of peptide every 24 h, sacrifice after 72 hours; for inhibition of the biological activity of TGF-β1 in vivo (in words): acute liver damage, type I collagen mRNA
T2 construct: from tissue; host or cells: liver of Balb/C mice (CCl4 model); lung of C57BL/6 mice (bleomycin model)
Description: Acute liver damage generates a cascade of effects and physiological responses, including elevations in the concentrations of TGF-β1. This elevation is responsible for the expression of the type I collagen gene, among others. In this model of acute liver damage, female Balb/C mice weighing 25 to 30 g, were orally administered a dose of 2 μl of CCl4 (per gram of body weight) dissolved in an equivalent volume of corn oil (volumetric ratio of 1:1). The control group received an equivalent volume of corn oil only, and the treated groups received (following the single oral administration of CCl4 in corn oil) 50 μg of peptide in 500 μl of 1% physiological saline solution in DMSO (dimethyl sulfoxide) every 24 h. After 72 hours all animals were sacrificed, and the liver samples were processed. To evaluate mRNA expression, liver tissue was frozen in liquid nitrogen and stored at −80° C. until further use. Other liver tissue samples were stored in OCT® or Tissue-Tek® (Sakura Finetek B.V.) and processed in the same way as the samples used for mRNA studies. Other liver samples were fixed in 10% buffered formalin solution, embedded in paraffin and processed for their histological evaluation. The amount of mRNA encoding type I collagen was quantified in all groups using a quantitative polymerase chain reaction (PCR) technique. […] The capacity of the testing peptides to block the acute damage, as assessed by measuring the levels of induced type I collagen mRNA was quantified by real time PCR. […] The peptides tested were obtained by conventional solid peptide synthesis procedures (Merrifield R B. J Am Chem Soc 1963; 85:2149-2154; Atherton E et al. J Chem Soc Perkin Trans 1981; 1:538-546).

T2 sequence (P04202 279-390 limits assumed): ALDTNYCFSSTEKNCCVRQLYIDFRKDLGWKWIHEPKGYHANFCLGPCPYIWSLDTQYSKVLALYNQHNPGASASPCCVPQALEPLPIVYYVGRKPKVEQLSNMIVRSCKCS
T1 sequence (P01137 279-390 limits assumed, species assumed): as the sequence (P04202 279-390 limits assumed) above, with S75A counted along it

| Sequence | inhibition of the biological activity of TGF-β1 in vitro (in words) [1] | No. colonies [2] | % Inhibition of type I collagen mRNA induction (in vivo TGF-β1 biological activity) [3] | inhibition of the biological activity of TGF-β1 in vivo (in words) [3] |
| --- | --- | --- | --- | --- |
| PPYHRFWRGHRHAVQ [SEQ ID NO: 6] | inhibitory capacity | 12 | 74.94 ± 25.3% | inhibitory capacity |
| WHKYFLRRPLSVRTR [SEQ ID NO: 11] | inhibitory capacity | 4 | 39.34 ± 21.9% | inhibitory capacity |
| RFFTRFPWHYHASRL [SEQ ID NO: 3] | only inhibitory activity | 41 | 2.09% | much less active |
| RLAHSHRHRSHVALT [SEQ ID NO: 4] | inhibitory capacity | 18 | 51.30 ± 15.3% | inhibitory capacity |
| RKWFLQHRRMPVSVL [SEQ ID NO: 13] | inhibitory capacity | 6 | 32.70% | inhibitory capacity |

Second part, led by results:

| inhibition of the biological activity of TGF-β1 in vitro (in words) [1] | No. colonies [2] | Sequence | % Inhibition of type I collagen mRNA induction (in vivo TGF-β1 biological activity) [3] | inhibition of the biological activity of TGF-β1 in vivo (in words) [3] |
| --- | --- | --- | --- | --- |
| only inhibitory activity | 1 | MPLSRYWWLFSHRPR [SEQ ID NO: 18] | Neg | – |
| inhibitory capacity | 2 | SGRRHLHRHHIFSLP [SEQ ID NO: 14] | 49.84 ± 24% | inhibitory capacity |
